No end group written: not given here.

Assay [1] deals with B10.D2 fibroblasts in the presence of NP 148-155 peptide. The experiment in a line: CTL immunogenicity of modifications and formulations of PR8-NP 148-155 (Table I). It is filed as in vivo, Balb/c mouse. As to conditions: in words. As for the experimental part:
Three weeks after immunization splenocytes were removed and stimulated in vitro with the flu 147-155 peptide. CTL activity was assayed one week later using ^51 Cr-labeled B10.D2 fibroblasts as targets. Target cells were tested in the absence of antigen, in the presence of Flu 147-155 peptide or following infection with influenza PR8 virus.
^b = CTL immunogenicity of various modifications and formulations of NP
result obtained from spleen cells derived from a single Balb/c mouse and
# the effector to target ratio (E:T) required to induce 40% antigen
specific lysis of ^51 Cr labeled B10D2 target cells in the presence of
ND148-155 peptide; +++ E:T below 10:1; ++ E + T between 10 + 1 and […]

In assay [2] the test system is Jurkat A2-1/Kb target cells; Jy target cells; Jy cells transfected with HBV core. On the set-up: species or system HLA-A2-1/kb transgenic mice. The conditions noted are these: mouse, in vivo, sc.
Assay [3] has as its system Jurkat A2.1/K^b target cells. The experiment in a line: CTL lysis after restimulation of splenocytes from mice primed with HBV-loaded spleen cells (Example I). Type of assay: cell-based, A2.1/K^b transgenic mice (effector cells). As to conditions: for representation of CTL epitopes: conclusion of Example I, FIGS. 1 and 2; for CTL lysis of Jurkat A2/K^b target cells: individual peptides, FIG. 1 panels E through H.

The test system of assay [4] is Jurkat A2.1/K^b target cells. As to the kind of experiment: CTL induction from splenocytes of mice primed subcutaneously with purified HBV in IFA (Example II). As to conditions: for ability to induce in vitro CTL from splenocytes of HBV-primed mice: FIGS. 3 and 4. Type of assay: cell-based, A2.1/K^b transgenic mice (effector cells).
For assay [5], the system named is Jurkat A2/K^b target cells. As to the kind of experiment: In vivo HBc 18-27-specific CTL priming by CTL and T helper epitopes (Example IV). On the set-up: species or system HLA-A2.1/K^b transgenic mice. The conditions noted are these: for magnitude of HBc18-27-specific CTL activity relative to other immunogens: comparison in words; for requirement of prior T helper priming for CTL priming: without previous priming with 875.23 in CFA; for HBc18-27-specific CTL response: 100 μg subcutaneously, transgenic mice. The protocol:
Animals were primed subcutaneously with 100 μg of 875.23 (T helper epitope) in Complete Freund's Adjuvant (CFA) followed 9 days later (subcutaneously) with […]. Splenocytes were removed 3 weeks later, cultured for 6 days in the presence of LPS-blasts that had been incubated with the CTL epitope (875.15), 100 μg for 2 hrs before being washed and added to the culture as a source of antigen presenting cells. The presence of HBc 18-27 (875.15)-specific CTL was determined using a standard 6 hr […] release assay with Jurkat A2.1/K^b cells as targets.
This example describes experiments which define the relative in vivo HBV-specific CTL priming efficiency of peptides expressing HBV CTL epitopes alone, CTL epitopes mixed with peptides containing T helper epitopes or CTL epitopes physically linked to T helper epitopes.
Nine days later each of the following peptides were injected subcutaneously into two unprimed and two helper-primed mice, 100 μg/mouse in incomplete Freund's adjuvant (IFA).
Three weeks after priming with the CTL epitope, splenocytes were in vitro restimulated with LPS blasts coated with HBc 18-27 (coating was achieved by incubating 30×10^6 LPS blasts with 100 μg of HBc18-27 in one ml of medium; after 1-2 hr at 37° C., the cells were washed). After 6 days, effector cells were assayed for lytic activity against ^51 Cr labelled Jurkat A2 /K^b target cells in the presence or absence of HBc18-27.

Another assay relates to ovalbumin-specific CTL. The conditions noted are these: cited from earlier work.
Setting [6] is: listed as linked peptides without spacer.

Consider “(PAM)2 KSS-ISQAVHAAHAEINE-AAA-TYQRTRALV ({(PAM)2}-KSSISQAVHAAHAEINEAAATYQRTRALV) [Peptide 932.05]”, for which, in assay [1], the “comparison of constructs and formulations” value (shortened to “comparison”) was “superior when injected in saline or Alum compared to all of the other combinations”.

With “(PAM)2 KSSISQAVHAAHAEINE-TYQRTRALV ({(PAM)2}-KSSISQAVHAAHAEINETYQRTRALV) [Peptide 932.04]”, the “comparison” value in assay [1] is recorded as “superior when injected in saline or Alum compared to all of the other combinations”.

Turning to “Ac-Gln-Tyr-Ile-Lys-Ala-Asn-Ser-Lys-Phe-Ile-Gly-Ile-Thr-Glu-Ala-Ala-Ala-Phe-Leu-Pro-Ser-Asp-Phe-Phe-Pro-Ser-Val-OH (Ac-QYIKANSKFIGITEAAAFLPSDFFPSV-OH) [Peptide 934.02]”, in assay [2], the “CTL response specific for HBc 18-27” value is “induction of a CTL response specific for HBc 18-27”.

Consider “Asn-Cys-Thr-Cys-Ile-Pro-Ile-Pro-Ser-Ser-Trp-Ala-Phe-Gly-Lys-Phe-Leu-Trp-Glu-Trp [Peptide 799.08]”, for which, in assay [3], the “CTL response and its MHC class I mediation” value is on record as “induces a CTL response which is mediated by at least the MHC class I molecule HLA-A2”; the “representation of CTL epitopes” value is “clearly represent CTL epitopes”; the “CTL lysis of Jurkat A2/K^b target cells” value is given as “induced CTL lysis of Jurkat A2 /K^b target cells above background”.

As to “ISQAVHAAHAEINE-AAA-TYQRTRALV (ISQAVHAAHAEINEAAATYQRTRALV) [Peptide 932.03]”, the “comparison” value in assay [1] is “superior to mixing the T helper+CTL (i.e., non-linked) and worked well in IFA, but not well in saline or Alum”.

On to “ISQAVHAAHAEINE-TYQRTRALV (ISQAVHAAHAEINETYQRTRALV) [Peptide 932.02]”, for which the “comparison” value in assay [1] is “superior to mixing the T helper+CTL (i.e., non-linked) and worked well in IFA, but not well in saline or Alum”.

Turning to LSPTVWLSVI [Peptide 884.02], in assay [4], the “recognition of truncation peptides by CTL raised against the larger peptide” value (from here on “recognition of truncation peptides”) is reported as “recognized by the CTL raised against the larger epitopes” and the “ability to induce in vitro CTL from splenocytes of HBV-primed mice” value (“ability to induce in vitro CTL” for short) is given as “clearly able to induce in vitro CTL”.

On to LSPTVWLSVIWMMWYWGPSL [Peptide 799.10], for which the figures for the “representation of CTL epitopes” value in assay [3] and in assay [3] (listed as HBenv 349-368) were “defined as containing CTL epitopes” and “clearly represent CTL epitopes”, respectively. Also, the “CTL lysis of Jurkat A2/K^b target cells” value in assay [3] was “induced CTL lysis of Jurkat A2 /K^b target cells above background”. Moreover, the “ability to induce in vitro CTL” value in assay [4] is recorded as “clearly able to induce in vitro CTL”.

Regarding MGLKFRQLLW [Peptide 883.03], in assay [4], the “recognition of truncation peptides” value was “recognized by the CTL raised against the larger epitopes” and the “ability to induce in vitro CTL” value is “clearly able to induce in vitro CTL”.

With NMGLKFRQLL [Peptide 883.02], in assay [4], the “recognition of truncation peptides” value is recorded as “recognized by the CTL raised against the larger epitopes” and the “ability to induce in vitro CTL” value is reported as “clearly able to induce in vitro CTL”.

As to “TPPAYRPPNAPILAAAFLPSDFFPSV-NH2 [Peptide 902.02]”, the “magnitude of HBc18-27-specific CTL activity relative to other immunogens” value in assay [5] was “greatest HBc18-27 (875.15)-specific CTL activity was detected”; in assay [5] (listed as T helper and CTL HBV peptides were linked by a Ala-Ala-Ala spacer), “specific CTL activity greater than induction of specific CTL activity with the linked peptides without spacer”; in assay [5] (listed as T helper and CTL epitopes via an alanine-alanine-alanine spacer), “specific CTL activity greater than that detected by linking the T helper and CTL determinants alone”. Besides, the “requirement of prior T helper priming for CTL priming” value in assay [5] was “previous priming of helper T cells was not required”.

On to “TPPAYRPPNAPILFLPSDFFPSV-NH2 [Peptide 902.01]”, for which the “HBc18-27-specific CTL response” value is given as “HBc-specific (875.15) CTL activity was detected” in assay [5] and “induce specific CTL priming of animals in all animals studied” in assay [5] (setting [6]). Also, in assay [5] (100 μg/mouse in IFA subcutaneously), the “animals with HBc18-27-specific CTL response” value is listed as 100%. Also, the “magnitude of HBc18-27-specific CTL activity relative to other immunogens” value in assay [5] (listed as T helper epitope linked to the CTL epitope) is “greater than that detected when the epitopes were administered non-linked”; in assay [5] (setting [6]), “at levels which were greater than when the CTL peptide and T helper peptide were administered unlinked”. For the same substance, the “requirement of prior T helper priming for CTL priming” value in assay [5] was “previous priming of helper T cells was not required”.

Turning to “Thr-Asn-Met-Gly-Leu-Lys-Phe-Arg-Gln-Leu-Leu-Trp-Phe-His-Ile-Ser-Cys-Leu-Thr-Phe [Peptide 802.03]”, in assay [3], the “CTL response and its MHC class I mediation” value is listed as “induces a CTL response which is mediated by at least the MHC class I molecule HLA-A2.1”; the “representation of CTL epitopes” value is given as “defined as containing CTL epitopes”; the “CTL lysis of Jurkat A2/K^b target cells” value was “induced CTL lysis of Jurkat A2 /K^b target cells above background”. The “representation of CTL epitopes” value in assay [3] (listed as HBc 91-110) is on record as “clearly represent CTL epitopes”. Moreover, the “ability to induce in vitro CTL” value in assay [4] is recorded as “clearly able to induce in vitro CTL”.

“Thr-Pro-Pro-Ala-Tyr-Arg-Pro-Pro-Asn-Ala-Pro-Ile-Leu (TPPAYRPPNAPIL) [Peptide 875.23]”: the “HBc18-27-specific CTL response” value in assay [5] is given as “no HBc18-27-specific CTL response is detected”; in assay [5] (listed as T helper peptide), “did not induce HBc-specific CTL”.

For the substance ovalbumin: ovalbumin (OVA) in IFA, the “generation of CTL” value in the assay with ovalbumin-specific CTL (i.v. or i.p.) was “generally does not lead to the generation of CTL”. Besides, the “ovalbumin-specific CTL response” value in the assay on ovalbumin-specific CTL (in IFA subcutaneously) is listed as “induces an ovalbumin-specific CTL response in mice”.

Values taken from patent US6322789A, “HLA-restricted hepatitis B virus CTL epitopes” (Epimmune, Inc., priority 1995, dated 2001).
